≈ marks a conversion by molar mass, not a printed value.

The viability is a read-out of living cells in per cent, often relative to untreated cells. Read a high viability as better survival. A word on the IC50: it is the concentration that inhibits the measured activity by half. The low end stands for inhibition by little substance, the high end for a need for much substance.

Data set [1] concerns A375 cells. The experiment in a line: FACS analysis for apoptosis (annexin V/PI) in A375 cells. The data set is classed as cell-based, human. The following applies: A375, 15.62 μg/mL. How it is done:
Furthermore FACS analysis using apoptosis detection kit has been performed. FACS analysis, have ascertained that the LDV liposomal formulation of PSI caused apoptotic death of B16F10 and A375 cells (FIGS. 4 and 5). Inventors have performed apoptosis assay using annexin V/PI in B16F10 and A375 cell to compare the amount of apoptotic death of cancer cell due to application of 15.62 μg/mL concentration of LDV liposomal PSI and doxorubicin. Inventors have found large amount of apoptotic death of both the cancer cells (A375 and B16F10) due to LDV liposomal PSI.
Fluorescence activated cell sorting (FACS) experiment was performed for studying the type of cell death. The cell death pathway of B16F10 cells in FACS using apoptosis detection kit was studied. Cells were seeded at a density of ˜5×10^5 cells per well in a 6-well plate before 24 hours of treatment. The cells were treated with solutions of LDV liposomal formulation of PSI. After that cells were incubated for 48 hours. Cells were trypsinized and washed with PBS by help of centrifugation. […] After this another 400 μL of assay buffer was added to the cells and these total 500 μL of cell solution was analyzed by FACS. The emission of Annexin V and PI was detected in the FITC and PI channels of BD LSRFORTESA flow cytometer using emission filters at 530 and 610 nm respectively. […] Data was analyzed using FACS DIVA software. […]
Background: A flow cytometer gives signals particle by particle.

Data set [2] has as its system B16F10 cells. As to the kind of experiment: FACS analysis for apoptosis (annexin V/PI) in B16F10 cells. It counts as cell-based, mouse. The settings on record: B16F10, 15.62 μg/mL, 48 hours. The method, then: Fluorescence activated cell sorting (FACS) experiment was performed for studying the type of cell death. The cell death pathway of B16F10 cells in FACS using apoptosis detection kit was studied. Cells were seeded at a density of ˜5×10^5 cells per well in a 6-well plate before 24 hours of treatment. The cells were treated with solutions of LDV liposomal formulation of PSI. After that cells were incubated for 48 hours. Cells were trypsinized and washed with PBS by help of centrifugation. Cells were incubated in dark at 37° C. for 30 minutes with a 100 μL solution of assay buffer containing 2.5 μL of Propidium iodide (PI) and 2.5 μL of annexin V. All these reagents were supplied along with the apoptosis detection kit (Santa Cruz Biotechnology). The stock concentration of Propidium iodide and annexin V was 50 μg/mL and 200 μg/mL respectively. After this another 400 μL of assay buffer was added to the cells and these total 500 μL of cell solution was analyzed by FACS. The emission of Annexin V and PI was detected in the FITC and PI channels of BD LSRFORTESA flow cytometer using emission filters at 530 and 610 nm respectively. In the represented data, cells in the Q1, Q2 and Q4 quadrants are regarded as necrotic, late apoptotic and early apoptotic cells respectively. Cells in the Q3 quadrant are regarded as normal cells or healthy cells. Data was analyzed using FACS DIVA software. […]

In data set [3] the test system is B16F10 cells. The experiment in a line: MTT cell viability assay in B16F10 cells. The data set is classed as cell-based. The settings on record: Mus musculus, B16-F10, B16F10, 15.62 μg/mL, Table 5 comparison, 24 h. Background: Tetrazolium assays rely on reduction of a dye to a coloured formazan, in cell work by metabolically active cells.
Method: B16F10 and A375 cells were treated with the LDV liposomal formulation of PSI and cellular viability was checked using MTT assay. It is a colorimetric assay where MTT (Methyl thiazolyl diphenyl-tetrazolium bromide), a yellow tetrazole compound, is reduced to purple formazan by cellular reductase enzymes of live cells. Dead cells cannot do this type of reduction and are not able to develop the purple colour. […] The live cells are called as viable cells and it is denoted as % viability in the Y-axis. On the X-axis four different concentrations of the said formulation was plotted. The absorbance at 550 nm was measured and the % viability was calculated.
(§1) Cells were seeded at a density of 10000 cells per well in 96-well plate before 24 hours of treatment. Cells were treated with different concentrations of LDV liposomal formulation of PSI. After that cells were incubated for 48 hours in complete media. MTT solution (5 mg/mL) was prepared in PBS. 50 μL of MTT solution was added into each well and incubated at 37° C. for 4 hours. Purple colored formazan was dissolved in 1:1 (v/v) DMSO/MeOH and absorbances of the wells were measured at 550 nm by micro-plate ELISA reader. The % viability from this absorbance values was calculated.
Data set [4] has as its system A375 cells. The experiment in a line: cells. The following applies: A-375, MTT. The data set is classed as cell-based, human.
Method: B16F10 and A375 cells were treated with the LDV liposomal formulation of PSI and cellular viability was checked using MTT assay. […] Therefore an idea about the amount of cells lived after the treatment of LDV liposomal formulation of PSI with respect to those cells (control) which are not treated with the peptide. […] The absorbance at 550 nm was measured and the % viability was calculated.
as §1
A375 cells were seeded at a density of 10000 cells per well in 96-well plate before 24 hours of treatment. Cells were treated with LDV-liposome-PSI and doxorubicin for 24 hours. MTT assay as described was performed and IC50 value was calculated using CompuSyn software.
Data set [5] is described as follows: MTT cell viability assay in WI38 normal cells. It counts as cell-based. The settings on record: human, WI38, 15.62 μg/mL, Table 5 comparison. How it is done: B16F10 and WI38 cells were seeded in a 96-well plate at density of 10000 cells per well before 24 h of treatment. Cells were treated with LDV liposomal PSI and normal liposomal PSI separately in complete media for 24 h. After 24 h, MTT assay was performed. […] In case of normal liposomal PSI, inventors have found similar amount of cell viability for both B16F10 and WI38 cells.
B16F10 and A375 cells were treated with the LDV liposomal formulation of PSI and cellular viability was checked using MTT assay. It is a colorimetric assay where MTT (Methyl thiazolyl diphenyl-tetrazolium bromide), a yellow tetrazole compound, is reduced to purple formazan by cellular reductase enzymes of live cells. Dead cells cannot do this type of reduction and are not able to develop the purple colour. Therefore an idea about the amount of cells lived after the treatment of LDV liposomal formulation of PSI with respect to those cells (control) which are not treated with the peptide. The live cells are called as viable cells and it is denoted as % viability in the Y-axis. On the X-axis four different concentrations of the said formulation was plotted. The absorbance at 550 nm was measured and the % viability was calculated.
% Viability=[(A550Treated Cells−A550 Backgrounds)/(A550Untreated Cells−A550 Backgrounds)]*100.

As for `COc1cccc2c1C(=O)c1c(O)c3c(c(O)c1C2=O)C[C@@](O)(C(=O)CO)C[C@@H]3O[C@H]1C[C@H](N)[C@H](O)[C@H](C)O1` [Doxorubicin], the entries for the “Amount of Apoptotic death of cancer cell (%)” value in the data set on A375 cells [1] and in the data set on B16F10 cells [2] were 100% and 99.9%, respectively. Further, the viability at 15.62 µg/mL in the data set with B16F10 cells [3] is 19.9%. For the same compound, in the data set on A375 cells [4] (A375, Melanoma (human), CompuSyn software), the IC50 worked out at 10.2 µg/mL (≈ 18.7 µM). The compound further registered a viability at 3.12 µg/mL in the data set on A375 cells [4] (Homo sapiens, A375, 3.12 μg/mL) of 94%. Moreover, the viability at 6.25 µg/mL with A375 cells [4] (Homo sapiens, A375, 6.25 μg/mL) is 59.2%. The same compound came in with a viability at 12.5 µg/mL in the data set with A375 cells [4] (Homo sapiens, A375, 12.5 μg/mL) of 31.5%. In the data set with A375 cells [4] (Homo sapiens, A375, 25 μg/mL), the viability at 25 µg/mL was determined as 11.7%. In the data set with A375 cells [4] (Homo sapiens, A375, 50 μg/mL), the viability at 50 µg/mL is 4.9%. This compound showed a viability at 100 µg/mL with A375 cells [4] (Homo sapiens, A375, 100 μg/mL) of 6.09%. In data set [5], this compound had a viability at 24 h, 15.62 μg/mL of 65.2%.

Source of the values: patent US20200253870A1, “A LDV LIPOSOMAL FORMULATION OF PHOTO SYSTEM-I FOR TREATMENT OF CANCER” (priority 2016, published 2020).
